Several values for one entry are separate records, joined by “and”; a condition that tells them apart may be missing. Equal values may be shown once. Entries after “also recorded” stand apart in the source; their conditions may differ. Read-outs that look alike come from different tables or passages of the source.
What was measured:
clinical = details: human, plasma, oral; for AUC(0-inf): AUC0–inf; for AUC(0-t): AUC0–last
[1] = system: cancer cell lines harboring various FGFR gene abnormalities; details: cited from earlier work
serum Pi = experiment: Post hoc hyperphosphatemia assessment with phosphate-binding therapy; format: in vivo, human
[2] = for RAUC0–last / RCmax: ratio
advanced solid tumors = experiment: Objective tumor response; format: in vivo, human
[3] = system: patients with advanced solid tumors; details: global phase I study, 64% Caucasian patients; cited from earlier work
[4] = 16 mg, Day 1, QD 16 mg, n = 3, mean (standard deviation)
[5] = 16 mg, Week 3, TIW 16 mg, n = 1
[6] = 20 mg, Day 1, QD 20 mg, n = 7, mean (standard deviation)
[7] = 20 mg, Week 3 (day 21), QD 20 mg, n = 2, mean
[8] = 24 mg, Week 3, TIW 24 mg, n = 1
[9] = 40 QD patients treated with phosphate-binding therapy
[10] = Week 3 (day 21), QD 20 mg, n = 2, mean
[11] = Week 3, TIW 36 mg, n = 3, mean (standard deviation)
[12] = Week 3, TIW 56 mg, n = 6, mean (standard deviation)
[13] = Week 3, TIW 80 mg, n = 5, mean (standard deviation)
[14] = Week 3, TIW 120 mg, n = 3, mean (standard deviation)
[15] = Week 3, TIW 160 mg, n = 4, mean (standard deviation)
[16] = FGFR‐abnormal patients with GC, All patients (n = 21)
[17] = FGFR‐abnormal patients with GC, FGRF2 CN <10 (n = 10)
[18] = FGFR‐abnormal patients with GC, FGRF2 CN ≥10 (n = 11)
[19] = Futibatinib regimen QD (n = 43)
[20] = Futibatinib regimen TIW (n = 39)
[21] = With FGF/FGFR abnormalities (n = 52)
[22] = Without FGF/FGFR abnormalities or unknown (n = 30)

C=CC(=O)N1CC[C@H](n2nc(C#Cc3cc(OC)cc(OC)c3)c3c(N)ncnc32)C1 [futibatinib]
AUC(0-inf) (clinical; 8 mg, Day 1, TIW 8 mg, n = 1): 390 ng·h/mL
AUC(0-inf) (clinical; 8 mg, Week 3, TIW 8 mg, n = 1): 663 ng·h/mL
AUC(0-t) (clinical; 8 mg, Day 1, TIW 8 mg, n = 1): 387 ng·h/mL
AUC(0-t) (clinical; 8 mg, Week 3, TIW 8 mg, n = 1): 653 ng·h/mL
Cmax (clinical; 8 mg, Day 1, TIW 8 mg, n = 1): 135 ng/mL
Tmax (clinical; 8 mg, Day 1, TIW 8 mg, n = 1, median): 1.87 h
half-life (clinical; 8 mg, t1/2, Day 1, TIW 8 mg, n = 1): 1.58 h
AUC(0-inf) (clinical; [4]): 1020 ng·h/mL
AUC(0-inf) (clinical; 16 mg, Day 1, TIW 16 mg, n = 1): 1190 ng·h/mL
AUC(0-inf) (clinical; [5]): 1580 ng·h/mL
AUC(0-t) (clinical; [4]): 1010 ng·h/mL
AUC(0-t) (clinical; 16 mg, Day 1, TIW 16 mg, n = 1): 1140 ng·h/mL
AUC(0-t) (clinical; [5]): 1580 ng·h/mL
Cmax (clinical; [4]): 235 ng/mL
Cmax (clinical; 16 mg, Day 1, TIW 16 mg, n = 1): 189 ng/mL
Cmax (clinical; [5]): 182 ng/mL
Tmax (clinical; 16 mg, Day 1, QD 16 mg, n = 3, median (minimum, maximum)): 0.95 h
Tmax (clinical; 16 mg, Day 1, TIW 16 mg, n = 1, median): 1.95 h
Tmax (clinical; 16 mg, Week 3, TIW 16 mg, n = 1, median): 2.9 h
half-life (clinical; 16 mg, t1/2, Day 1, QD 16 mg, n = 3, mean (standard deviation)): 2.68 h
half-life (clinical; 16 mg, t1/2, Day 1, TIW 16 mg, n = 1): 5.72 h
AUC(0-inf) (clinical; [6]): 983 ng·h/mL
AUC(0-inf) (clinical; [7]): 729 ng·h/mL
AUC(0-t) (clinical; [6]): 977 ng·h/mL
AUC(0-t) (clinical; [7]): 727 ng·h/mL
Cmax (clinical; [6]): 253 ng/mL
half-life (clinical; 20 mg, t1/2, Day 1, QD 20 mg, n = 7, mean (standard deviation)): 2.18 h
half-life (clinical; 20 mg, t1/2, Week 3 (day 21), QD 20 mg, n = 2, mean): 3.05 h
AUC(0-inf) (clinical; 24 mg, Day 1, TIW 24 mg, n = 1): 623 ng·h/mL
AUC(0-inf) (clinical; [8]): 502 ng·h/mL
AUC(0-t) (clinical; 24 mg, Day 1, TIW 24 mg, n = 1): 621 ng·h/mL
AUC(0-t) (clinical; [8]): 499 ng·h/mL
Cmax (clinical; 24 mg, Day 1, TIW 24 mg, n = 1): 204 ng/mL
Cmax (clinical; [8]): 146 ng/mL
Tmax (clinical; 24 mg, Day 1, TIW 24 mg, n = 1, median): 1.95 h
Tmax (clinical; 24 mg, Week 3, TIW 24 mg, n = 1, median): 3.98 h
half-life (clinical; 24 mg, t1/2, Day 1, TIW 24 mg, n = 1): 1.55 h
half-life (clinical; 24 mg, t1/2, Week 3, TIW 24 mg, n = 1): 1.47 h
AUC(0-inf) (clinical; 36 mg, Week 3, TIW 36 mg, n = 3, mean): 2160 ng·h/mL
half-life (clinical; 36 mg, t1/2, Week 3, TIW 36 mg, n = 2, mean): 3.64 h
Susceptibility to resistance development [1]: low susceptibility to resistance development
Futibatinib dose interruption (serum Pi; [9]): 30%
Futibatinib dose reduction (serum Pi; [9]): 12.5%
Safety concerns regardless of presence or absence of phosphate-binding therapy (serum Pi; futibatinib QD): No safety concerns were identified
Patients achieving the target serum Pi level (serum Pi; futibatinib dose reduction after starting phosphate-binding therapy (15 patients)): 86.7%
Hyperphosphatemia events leading to discontinuation of futibatinib (serum Pi; in vivo): not leading to futibatinib discontinuation; also recorded: none of the hyperphosphatemia events led to discontinuation of futibatinib
Patients achieving the target serum Pi level (serum Pi; no dose reduction after starting phosphate-binding therapy (10/20)): 50.0%
Cmax ([2]; Day 1, TIW 80 mg, n = 6, mean (standard deviation)): 866 (366) [42.3] ng/ml
t1/2 ([2]; Day 1, TIW 120 mg, n = 3, mean (standard deviation)): 6.64 (1.08) [16.3] ^b h
Dose proportionality of Cmax and AUC ([2]; TIW regimens, single and multiple administrations): dose‐proportional changes in Cmax and AUC0–last
Cmax [2, 10]: 173 (NC) [NC] ng/ml
RAUC0–last [2, 10]: 1.29 (NC) [NC]
RCmax [2, 10]: 0.91 (NC) [NC]
Cmax ([2]; Week 3, TIW 8 mg, n = 1): 167 (NC) [NC] ng/ml
t1/2 ([2]; Week 3, TIW 8 mg, n = 1): 1.74 (NC) [NC] h
RAUC0–last ([2]; Week 3, TIW 8 mg, n = 1): 1.69 (NC) [NC]
RCmax ([2]; Week 3, TIW 8 mg, n = 1): 1.24 (NC) [NC]
t1/2 ([2]; Week 3, TIW 16 mg, n = 1): 5.27 (NC) [NC] h
RAUC0–last ([2]; Week 3, TIW 16 mg, n = 1): 1.39 (NC) [NC]
RCmax ([2]; Week 3, TIW 16 mg, n = 1): 0.96 (NC) [NC]
RAUC0–last ([2]; Week 3, TIW 24 mg, n = 1): 0.80 (NC) [NC]
RCmax ([2]; Week 3, TIW 24 mg, n = 1): 0.72 (NC) [NC]
RAUC0–last [2, 11]: 1.51 (0.47) [30.9]
RCmax [2, 11]: 0.88 (0.44) [49.7]
RAUC0–last [2, 12]: 1.36 (0.44) [32.5]
RCmax [2, 12]: 1.25 (0.36) [28.8]
AUC0–last [2, 13]: 7394 (3731) [50.5] ng·h/ml
RAUC0–last [2, 13]: 1.25 (0.25) [20.0]
RCmax [2, 13]: 0.96 (0.09) [9.1]
RAUC0–last [2, 14]: 1.27 (0.29) [23.1]
RCmax [2, 14]: 1.02 (0.34) [33.2]
RAUC0–last [2, 15]: 1.54 (0.64) [41.6]
RCmax [2, 15]: 1.05 (0.82) [78.2]
Renal excretion of unchanged futibatinib ([2]; in vivo): negligible
Best response CR (advanced solid tumors; [16]): 0 (0.0) n (%)
Best response NE (advanced solid tumors; [16]): 2 (9.5) n (%)
Best response PD (advanced solid tumors; [16]): 12 (57.1) n (%)
Best response PR (advanced solid tumors; [16]): 4 (19.0) n (%)
Best response SD (advanced solid tumors; [16]): 3 (14.3) n (%)
DCR (95% CI) (advanced solid tumors; [16]): 33.3 (14.6–57.0) %
ORR (95% CI) (advanced solid tumors; [16]): 19.0 (5.4–41.9) %
Best response CR (advanced solid tumors; [17]): 0 (0.0) n (%)
Best response NE (advanced solid tumors; [17]): 2 (20.0) n (%)
Best response PD (advanced solid tumors; [17]): 7 (70.0) n (%)
Best response PR (advanced solid tumors; [17]): 0 (0.0) n (%)
Best response SD (advanced solid tumors; [17]): 1 (10.0) n (%)
DCR (95% CI) (advanced solid tumors; [17]): 10.0 (0.3–44.5) %
ORR (95% CI) (advanced solid tumors; [17]): 0 (0–30.8) %
Best response CR (advanced solid tumors; [18]): 0 (0.0) n (%)
Best response NE (advanced solid tumors; [18]): 0 (0.0) n (%)
Best response PD (advanced solid tumors; [18]): 5 (45.5) n (%)
Best response PR (advanced solid tumors; [18]): 4 (36.4) n (%)
Best response SD (advanced solid tumors; [18]): 2 (18.2) n (%)
DCR (95% CI) (advanced solid tumors; [18]): 54.5 (23.4–83.3) %
ORR (95% CI) (advanced solid tumors; [18]): 36.4 (10.9–69.2) %
Best response CR (advanced solid tumors; [19]): 0 (0.0) n (%)
Best response NE (advanced solid tumors; [19]): 4 (9.3) n (%)
Best response PD (advanced solid tumors; [19]): 23 (53.5) n (%)
Best response PR (advanced solid tumors; [19]): 5 (11.6) n (%)
Best response SD (advanced solid tumors; [19]): 11 (25.6) n (%)
DCR (95% CI) (advanced solid tumors; [19]): 37.2 (23.0–53.3) %
ORR (95% CI) (advanced solid tumors; [19]): 11.6 (3.9–25.1) %
Best response CR (advanced solid tumors; [20]): 0 (0.0) n (%)
Best response NE (advanced solid tumors; [20]): 5 (12.8) n (%)
Best response PD (advanced solid tumors; [20]): 23 (59.0) n (%)
Best response PR (advanced solid tumors; [20]): 1 (2.6) n (%)
Best response SD (advanced solid tumors; [20]): 10 (25.6) n (%)
DCR (95% CI) (advanced solid tumors; [20]): 28.2 (15.0–44.9) %
ORR (95% CI) (advanced solid tumors; [20]): 2.6 (0.1–13.5) %
Patients with best response of confirmed PR (advanced solid tumors; GC patients with FGFR2 CN <10): 0/10
Patients with best response of confirmed PR (advanced solid tumors; GC patients with FGFR2 CN ≥10): 4/11
Best response CR (advanced solid tumors; Total (n = 82)): 0 (0.0) n (%)
Best response NE (advanced solid tumors; Total (n = 82)): 9 (11.0) n (%)
Best response PD (advanced solid tumors; Total (n = 82)): 46 (56.1) n (%)
Best response SD (advanced solid tumors; Total (n = 82)): 21 n (%) and 21 (25.6) n (%)
DCR (95% CI) (advanced solid tumors; Total (n = 82)): 32.9 (22.9–44.2) %
ORR (95% CI) (advanced solid tumors; Total (n = 82)): 7.3 (2.7–15.2) %
Best response CR (advanced solid tumors; [21]): 0 (0.0) n (%)
Best response NE (advanced solid tumors; [21]): 6 (11.5) n (%)
Best response PD (advanced solid tumors; [21]): 27 (51.9) n (%)
Best response PR (advanced solid tumors; [21]): 6 (11.5) n (%)
Best response SD (advanced solid tumors; [21]): 13 (25.0) n (%)
DCR (95% CI) (advanced solid tumors; [21]): 36.5 (23.6–51.0) %
ORR (95% CI) (advanced solid tumors; [21]): 11.5 (4.4–23.4) %
Best response CR (advanced solid tumors; [22]): 0 (0.0) n (%)
Best response NE (advanced solid tumors; [22]): 3 (10.0) n (%)
Best response PD (advanced solid tumors; [22]): 19 (63.3) n (%)
Best response PR (advanced solid tumors; [22]): 0 (0.0) n (%)
Best response SD (advanced solid tumors; [22]): 8 (26.7) n (%)
DCR (95% CI) (advanced solid tumors; [22]): 26.7 (12.3–45.9) %
ORR (95% CI) (advanced solid tumors; [22]): 0 (0–11.6) %
Patients with confirmed PR (advanced solid tumors; patients with GC evaluated for response): 4/21
Dose proportionality of Cmax and AUC [3]: statistically dose‐proportional between 4 mg and 24 mg QD

Reference: article PMC9899610 (Cancer Science, 2022)
